“Also recorded” adds a separate entry of the source.
Tests used:
Assay type in all cases: cell-based
IRAK4 [1] = molecular target: T1, IRAK4 (Homo sapiens (Human), UniProt Q9NWZ3); assay: Western Assay for IRAK4 Degradation; details: wild-type Jurkat cells, 4 hrs; approximate
Experimental: DMSO was stamped into wells A12-H12 at 500 nL/well (NC, Negative Control, maximum signal). […] Following incubation, plates were centrifuged for 5 min at 1600 rpm. […] Cells were lysed overnight at −20° C. Plates were centrifuged for 5 min at 1600 rpm and lysate supernatants were transferred to storage plates. […] Samples were separated by running gels at constant 200 V in NuPAGE MES SDS Running Buffer. Following electrophoresis, proteins were transferred to nitrocellulose membranes using an iBlot Gel Transfer Device and iBlot Gel Transfer Stacks (Thermo cat. no. IB21001 and IB301001) and transfer method PO (20V 1 min, 23V 4 min, 25V 2 min). Membranes were blocked for 1 hr in 5% milk solution (TBS (0.2% Tween-20)).
Following blocking, membranes were incubated with primary antibody overnight at 4° C. with gentle shaking. […] Blots were washed 3× in TBS (0.2% Tween-20), 5-10 min per wash. Following washes, blots were incubated in secondary HRP-conjugated antibody (Promega anti-Rabbit IgG (H+L) HRP, cat. no. W4011), 1:5000 in 5% milk solution (TBS (0.2% Tween-20)), for 1 hr at room temperature with gentle shaking. Blots were washed 3× in TBS (0.2% Tween-20), 5-10 min per wash. Blots were incubated with 1:1 mix of ECL reagents 1 & 2 (Amersham ECL Western Blotting Detection Reagent, cat. no. RPN2106) for 2-3 min at room temperature. Bands were visualized using a Protein Simple imager. […] The data was analyzed using Alpha View software. The densitometric reading for each sample band was normalized to that of the corresponding actin band per lane.

IRAK4 [2] = molecular target: T1, IRAK4; assay: IRAK4 Degradation HTRF Assay; details: wild-type Jurkat cells, 4 hrs
Experimental: DMSO was stamped into wells A12-H12 at 400 nL/well (NC, Negative Control, maximum signal). […] Following incubation, plates were centrifuged for 5 min at 1600 rpm. […] Cells were incubated 30 min at room temperature with gentle shaking. 16 μL each lysate was transferred to 96-well detection plate included in Cisbio Total IRAK4 HTRF Assay Kit (cat. no. 63ADK108PEG). To the lysates was added 2 μL each of Total-IRAK4 d2 antibody and Total-IRAK4 Cryptate antibody (Cisbio Total IRAK4 HTRF Assay Kit). Plates were incubated overnight at RT. Fluorescence emission at 665 nm and 620 nm was read using an EnVision plate reader. The HTRF Ratio was calculated per sample using the following equation: HTRF Ratio=(665 nm signal/620 nm signal)×10,000

Aiolos = Aiolos (Homo sapiens (Human), UniProt Q96SW2+Q9UKT9); assay: Flow Cytometry-Based Assay for Aiolos Degradation; details: 24 hours; for DC50: Jurkat cells (Clone E6-1); for Aiolos (CRBN neosubstrate) degradation, in words: Jurkat cells
Experimental: Flow Cytometry-Based Assay for Aiolos and Ikaros Degradation
Jurkat cells (Clone E6-1) were treated with DMSO or compound for 24 hours and then fixed and permeabilized using a Foxp3/Transcription Factor Fixation/Permeabilization Kit (eBioscience, cat. no. 00-5523). Cells were stained with fluorophore-conjugated antibodies against Ikaros (Biolegend 368414) and Aiolos (Biolegend, cat. no. 371106). An additional set of DMSO-treated cells was stained with fluorophore-conjugated isotype control antibodies (Biolegend, cat. no. 400254 and 400136). Stained cells were run on an Attune N×T Acoustic Focusing Flow Cytometer (Thermo-Fisher, cat. no. A29004), and data was analyzed using FlowJo (v10.5.3) and GraphPad Prism (v7.00) software. Single cells were gated, and the geometric mean fluorescence intensities (MFIs) of Ikaros and Aiolos were calculated. The MFI of the isotype control was calculated for each analyte and used to quantify background staining. Percent Ikaros or Aiolos degradation was calculated for each compound-treated sample using the following equation: % Degradation=[…]

IRAK4 [3] = molecular target: T1, IRAK4; assay: IRAK4 Degradation Competition/Rescue Assay; details: degrader 1 μM; 1 hr pre-treatment with Nedd8i (5 μM) or MG-132 (20 or 50 μM); HiBiT Jurkat clone 8D5
From the text: IRAK4 Degradation Competition/Rescue Assay

Jurkat cells = assay: Viability Assay (Celltiter-Glo); details: Homo sapiens, 4 hrs, read-out: Viability assessment EC50
Experimental: Viability Assay (Celltiter-Glo)
DMSO was stamped into empty wells at 60 nL/well (NC, Negative Control, maximum signal). […] Following incubation, the CellTiter-Glo assay was performed according to manufacturer's instructions (Promega CellTiter-Glo Luminescent Cell Viability Assay, cat. no. G7570).

T1 sequence (Q9NWZ3 whole entry): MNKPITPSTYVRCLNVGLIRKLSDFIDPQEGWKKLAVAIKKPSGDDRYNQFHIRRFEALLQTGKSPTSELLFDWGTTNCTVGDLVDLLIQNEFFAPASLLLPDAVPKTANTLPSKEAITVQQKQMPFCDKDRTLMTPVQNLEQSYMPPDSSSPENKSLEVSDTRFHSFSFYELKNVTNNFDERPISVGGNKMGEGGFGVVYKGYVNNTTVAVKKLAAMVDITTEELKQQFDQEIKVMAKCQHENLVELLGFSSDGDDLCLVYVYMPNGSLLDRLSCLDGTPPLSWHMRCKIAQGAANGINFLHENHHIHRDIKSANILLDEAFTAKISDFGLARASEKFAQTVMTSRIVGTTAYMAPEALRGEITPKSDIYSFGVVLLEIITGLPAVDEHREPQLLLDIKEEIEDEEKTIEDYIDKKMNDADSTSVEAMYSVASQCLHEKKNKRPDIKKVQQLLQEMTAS
Aiolos, sequence (Q9UKT9 whole entry): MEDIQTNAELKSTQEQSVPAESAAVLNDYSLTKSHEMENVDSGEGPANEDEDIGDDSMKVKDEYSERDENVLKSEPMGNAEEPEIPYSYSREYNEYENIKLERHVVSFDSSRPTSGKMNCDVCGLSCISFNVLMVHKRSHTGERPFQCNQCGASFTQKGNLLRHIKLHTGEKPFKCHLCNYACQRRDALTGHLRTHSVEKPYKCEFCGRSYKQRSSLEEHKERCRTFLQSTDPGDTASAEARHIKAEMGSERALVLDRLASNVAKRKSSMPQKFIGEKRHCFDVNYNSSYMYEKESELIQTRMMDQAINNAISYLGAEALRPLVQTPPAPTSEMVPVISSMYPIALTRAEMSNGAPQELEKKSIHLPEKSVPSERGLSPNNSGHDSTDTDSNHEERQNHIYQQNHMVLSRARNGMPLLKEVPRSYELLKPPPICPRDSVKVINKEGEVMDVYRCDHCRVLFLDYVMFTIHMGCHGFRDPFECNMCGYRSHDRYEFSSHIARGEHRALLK
Aiolos, sequence (Q96SW2 whole entry): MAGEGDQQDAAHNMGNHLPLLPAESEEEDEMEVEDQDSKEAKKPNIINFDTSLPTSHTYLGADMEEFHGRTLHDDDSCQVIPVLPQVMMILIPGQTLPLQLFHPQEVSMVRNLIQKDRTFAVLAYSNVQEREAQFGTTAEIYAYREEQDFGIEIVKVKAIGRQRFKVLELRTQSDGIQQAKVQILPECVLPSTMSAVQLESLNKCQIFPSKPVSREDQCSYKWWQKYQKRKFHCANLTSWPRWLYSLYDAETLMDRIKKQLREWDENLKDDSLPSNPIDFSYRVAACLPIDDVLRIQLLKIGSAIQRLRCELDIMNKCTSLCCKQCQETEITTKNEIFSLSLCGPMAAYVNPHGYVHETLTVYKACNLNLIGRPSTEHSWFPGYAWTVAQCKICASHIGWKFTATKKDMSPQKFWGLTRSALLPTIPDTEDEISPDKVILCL
Aiolos, sequence (Q16531 whole entry partner): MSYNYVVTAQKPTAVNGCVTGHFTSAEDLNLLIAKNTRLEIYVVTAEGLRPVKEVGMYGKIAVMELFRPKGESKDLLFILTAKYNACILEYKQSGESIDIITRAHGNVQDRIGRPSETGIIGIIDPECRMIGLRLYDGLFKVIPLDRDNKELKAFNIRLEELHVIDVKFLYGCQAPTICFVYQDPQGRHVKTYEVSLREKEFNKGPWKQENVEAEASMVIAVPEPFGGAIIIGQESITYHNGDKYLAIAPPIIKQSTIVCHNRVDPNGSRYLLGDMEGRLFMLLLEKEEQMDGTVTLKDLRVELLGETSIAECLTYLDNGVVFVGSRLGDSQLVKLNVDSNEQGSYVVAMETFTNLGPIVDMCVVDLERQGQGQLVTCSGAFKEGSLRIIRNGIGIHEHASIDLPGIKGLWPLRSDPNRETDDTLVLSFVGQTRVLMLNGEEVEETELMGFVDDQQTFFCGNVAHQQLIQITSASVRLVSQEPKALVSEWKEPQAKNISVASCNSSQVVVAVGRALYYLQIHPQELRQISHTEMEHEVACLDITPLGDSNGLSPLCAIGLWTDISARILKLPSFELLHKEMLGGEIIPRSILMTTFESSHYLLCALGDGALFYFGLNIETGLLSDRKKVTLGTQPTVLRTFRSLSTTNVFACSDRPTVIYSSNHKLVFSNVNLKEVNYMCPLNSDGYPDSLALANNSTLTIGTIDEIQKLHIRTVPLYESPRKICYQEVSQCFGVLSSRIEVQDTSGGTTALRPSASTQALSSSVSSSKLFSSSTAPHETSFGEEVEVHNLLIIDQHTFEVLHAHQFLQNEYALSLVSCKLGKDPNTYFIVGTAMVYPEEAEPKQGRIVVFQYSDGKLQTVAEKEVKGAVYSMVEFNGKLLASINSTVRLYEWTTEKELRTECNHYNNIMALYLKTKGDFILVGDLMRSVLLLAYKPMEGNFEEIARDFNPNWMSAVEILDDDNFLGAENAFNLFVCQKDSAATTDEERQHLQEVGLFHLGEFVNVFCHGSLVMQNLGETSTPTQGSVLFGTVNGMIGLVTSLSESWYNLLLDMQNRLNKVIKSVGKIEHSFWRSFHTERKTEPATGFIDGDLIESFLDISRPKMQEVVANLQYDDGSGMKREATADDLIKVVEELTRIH

SMILES | DC50 (IRAK4 [1]) | Dmax (IRAK4 [1]) | DC50 (IRAK4 [2]) | Dmax (IRAK4 [2]) | DC50 (Aiolos) | Rescue by proteasome or Nedd8 inhibition (IRAK4 [3]) | EC50 (Jurkat cells) | Aiolos (CRBN neosubstrate) degradation, in words (Aiolos) | IRAK4 degradation by HTRF, in words (IRAK4 [2])
CC[C@@H]1[C@H](F)C(=O)N[C@@H]1COc1ncc(C#CCN2CCC3(CC2)CCN(c2ncc(C(=O)N[C@H](C(=O)N4C[C@H](O)C[C@H]4C(=O)NCc4ccc(-c5scnc5C)cc4)C(C)(C)C)cn2)CC3)c2cc(C(N)=O)c(OC)cc12 [Comparative b1, reference compound] | 70 nM | 86% | 80 nM | 100% | > 5000 nM | YES | > 10000 nM | – | –
NC(=O)c1nn(-c2ccc(C(=O)NCCOCCOCCNc3cccc4c3C(=O)N(C3CCC(=O)NC3=O)C4=O)cc2)cc1NC(=O)c1coc(-c2ccnc(NCC(F)(F)F)c2)n1 (stereo not drawn) [Comparative Compound a2, reference compound] | 1 nM | 54% | 60 nM | 100% | 20 nM | YES | > 10000 nM | induced neosubstrate degradation; also recorded: degraded both Ikaros and Aiolos | –
Cc1ncsc1-c1ccc(CNC(=O)[C@@H]2C[C@@H](O)CN2C(=O)[C@@H](NC(=O)C2(F)CC2)C(C)(C)C)c(OCCOCCC(=O)N2CCN(c3nnc(-c4cnc(-c5ccc6cc(C#N)cnn56)cc4NC(C)C)s3)CC2)c1 [Example 47, (2S,4R)—N-(2-(2-(3-(4-(5-(6-(3-cyanopyrrolo[1,2-b]pyridazin-7-yl)-4-(isopropylamino)pyridin-3-yl)-1,3,4-thiadiazol-2-yl)piperazin-1-yl)-3-oxopropoxy)ethoxy)-4-(4-methylthiazol-5-yl)benzyl)-1-((S)-2-(1-fluorocyclopropane-1-carboxamido)-3,3-dimethylbutanoyl)-4-hydroxypyrrolidine-2-carboxamide] | 89 nM | 99% | 140 nM | > 100% | > 5000 nM | YES | > 10000 nM | none of Compounds 13, 24, 47, and 35 displayed neosubstrate degradation | maximum IRAK4 degradation among the tested compounds
Cc1ncsc1-c1ccc(CNC(=O)[C@@H]2C[C@@H](O)CN2C(=O)[C@@H](NC(=O)CCCC(=O)N2CCN(c3nnc(-c4cnc(-c5ccc6cc(C#N)cnn56)cc4NC(C)C)s3)CC2)C(C)(C)C)cc1 [Example 35, (2S,4R)-1-((S)-2-(5-(4-(5-(6-(3-cyanopyrrolo[1,2-b]pyridazin-7-yl)-4-(isopropylamino)pyridin-3-yl)-1,3,4-thiadiazol-2-yl)piperazin-1-yl)-5-oxopentanamido)-3,3-dimethylbutanoyl)-4-hydroxy-N-(4-(4-methylthiazol-5-yl)benzyl)pyrrolidine-2-carboxamide] | 200 nM | 86% | 400 nM | 100% | > 5000 nM | YES | > 10000 nM | none of Compounds 13, 24, 47, and 35 displayed neosubstrate degradation | –

Continued, in another order:

DC50 (IRAK4 [1]) | Dmax (IRAK4 [1]) | DC50 (IRAK4 [2]) | Dmax (IRAK4 [2]) | DC50 (Aiolos) | Rescue by proteasome or Nedd8 inhibition (IRAK4 [3]) | EC50 (Jurkat cells) | SMILES | Aiolos (CRBN neosubstrate) degradation, in words (Aiolos) | IRAK4 degradation by HTRF, in words (IRAK4 [2])
14 nM | 87% | 50 nM | > 100% | > 5000 nM | YES | > 10000 nM | CC(C)Nc1cc(-c2ccc3cc(C#N)cnn23)ncc1-c1nnc(N2CCN(C(=O)C3CCN(Cc4ccc5c(c4)C(=O)N(C4CCC(=O)NC4=O)C5=O)CC3)CC2)s1 (stereo not drawn) [Example 13, 7-(5-(5-(4-(1-((2-(2,6-dioxopiperidin-3-yl)-1,3-dioxoisoindolin-5-yl)methyl)piperidine-4-carbonyl)piperazin-1-yl)-1,3,4-thiadiazol-2-yl)-4-(isopropylamino)pyridin-2-yl)pyrrolo[1,2-b]pyridazine-3-carbonitrile] | none of Compounds 13, 24, 47, and 35 displayed neosubstrate degradation | –
200 nM | 90% | 420 nM | > 100% | > 5000 nM | YES | > 10000 nM | CC(C)Nc1cc(-c2ccc3cc(C#N)cnn23)ncc1-c1nnc(N2CCN(C(=O)C3CCN(CC4CCN(c5ccc(-c6nn(C7CCC(=O)NC7=O)c(=O)n6C)cc5)CC4)CC3)CC2)s1 (stereo not drawn) [Example 24, 7-(5-(5-(4-(1-((1-(4-(1-(2,6-dioxopiperidin-3-yl)-4-methyl-5-oxo-4,5-dihydro-1H-1,2,4-triazol-3-yl)phenyl)piperidin-4-yl)methyl)piperidine-4-carbonyl)piperazin-1-yl)-1,3,4-thiadiazol-2-yl)-4-(isopropylamino)pyridin-2-yl)pyrrolo[1,2-b]pyridazine-3-carbonitrile] | none of Compounds 13, 24, 47, and 35 displayed neosubstrate degradation | –
